From ChEMBL document CHEMBL3098040, “Design and Discovery of 2-Arylquinazolin-4-ones as Potent and Selective Inhibitors of Tankyrases” (ACS Med Chem Lett, 2013)

Assays:
[1] = target: Inosine-5'-monophosphate dehydrogenase 2 (Homo sapiens, UniProt P12268); test: Inhibition of human recombinant IMPDH2 by spectrophotometry
[2] = target: Poly [ADP-ribose] polymerase 1 (Homo sapiens, UniProt P09874); test: Inhibition of PARP1 (unknown origin) after 1 hr by spectrophotometry
[3] = target: T1, Poly [ADP-ribose] polymerase tankyrase-2 (Homo sapiens, UniProt Q9H2K2); test: Inhibition of human tankyrase2 after 2 hrs by spectrophotometry
T1 sequence (Q9H2K2 whole entry): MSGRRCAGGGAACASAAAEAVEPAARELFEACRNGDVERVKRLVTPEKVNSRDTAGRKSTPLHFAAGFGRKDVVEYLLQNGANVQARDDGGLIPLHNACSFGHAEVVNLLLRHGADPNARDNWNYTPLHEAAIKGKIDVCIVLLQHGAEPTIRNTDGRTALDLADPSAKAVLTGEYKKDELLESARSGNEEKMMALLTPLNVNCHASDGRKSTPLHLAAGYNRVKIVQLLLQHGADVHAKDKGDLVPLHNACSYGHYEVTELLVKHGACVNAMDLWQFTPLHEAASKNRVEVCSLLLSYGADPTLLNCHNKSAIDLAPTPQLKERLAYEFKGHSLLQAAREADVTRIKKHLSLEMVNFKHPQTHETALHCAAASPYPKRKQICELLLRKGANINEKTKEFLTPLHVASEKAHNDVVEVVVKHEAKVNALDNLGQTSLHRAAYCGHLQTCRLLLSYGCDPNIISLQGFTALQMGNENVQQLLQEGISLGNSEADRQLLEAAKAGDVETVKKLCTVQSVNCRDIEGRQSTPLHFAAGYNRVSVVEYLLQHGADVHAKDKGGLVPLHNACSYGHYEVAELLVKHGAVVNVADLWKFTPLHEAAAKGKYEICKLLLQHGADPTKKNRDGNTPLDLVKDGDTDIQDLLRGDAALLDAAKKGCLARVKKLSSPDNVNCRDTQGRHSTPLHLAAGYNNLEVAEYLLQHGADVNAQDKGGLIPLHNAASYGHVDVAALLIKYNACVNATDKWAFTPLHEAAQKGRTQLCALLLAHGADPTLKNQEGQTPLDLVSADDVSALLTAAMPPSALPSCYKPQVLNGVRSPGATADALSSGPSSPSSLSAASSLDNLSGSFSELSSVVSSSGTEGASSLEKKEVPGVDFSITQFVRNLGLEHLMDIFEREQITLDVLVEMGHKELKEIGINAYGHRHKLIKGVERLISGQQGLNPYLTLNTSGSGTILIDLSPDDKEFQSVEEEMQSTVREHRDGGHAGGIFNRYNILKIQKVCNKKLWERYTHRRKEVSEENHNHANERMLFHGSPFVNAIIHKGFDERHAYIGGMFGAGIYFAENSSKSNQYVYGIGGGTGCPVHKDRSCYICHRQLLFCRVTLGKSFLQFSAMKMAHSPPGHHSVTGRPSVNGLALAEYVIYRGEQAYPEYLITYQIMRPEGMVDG

[4] = target: T2, Poly [ADP-ribose] polymerase tankyrase-1 (Homo sapiens, UniProt O95271); test: Inhibition of human tankyrase1 after 30 mins by spectrophotometry
T2 sequence (O95271 whole entry): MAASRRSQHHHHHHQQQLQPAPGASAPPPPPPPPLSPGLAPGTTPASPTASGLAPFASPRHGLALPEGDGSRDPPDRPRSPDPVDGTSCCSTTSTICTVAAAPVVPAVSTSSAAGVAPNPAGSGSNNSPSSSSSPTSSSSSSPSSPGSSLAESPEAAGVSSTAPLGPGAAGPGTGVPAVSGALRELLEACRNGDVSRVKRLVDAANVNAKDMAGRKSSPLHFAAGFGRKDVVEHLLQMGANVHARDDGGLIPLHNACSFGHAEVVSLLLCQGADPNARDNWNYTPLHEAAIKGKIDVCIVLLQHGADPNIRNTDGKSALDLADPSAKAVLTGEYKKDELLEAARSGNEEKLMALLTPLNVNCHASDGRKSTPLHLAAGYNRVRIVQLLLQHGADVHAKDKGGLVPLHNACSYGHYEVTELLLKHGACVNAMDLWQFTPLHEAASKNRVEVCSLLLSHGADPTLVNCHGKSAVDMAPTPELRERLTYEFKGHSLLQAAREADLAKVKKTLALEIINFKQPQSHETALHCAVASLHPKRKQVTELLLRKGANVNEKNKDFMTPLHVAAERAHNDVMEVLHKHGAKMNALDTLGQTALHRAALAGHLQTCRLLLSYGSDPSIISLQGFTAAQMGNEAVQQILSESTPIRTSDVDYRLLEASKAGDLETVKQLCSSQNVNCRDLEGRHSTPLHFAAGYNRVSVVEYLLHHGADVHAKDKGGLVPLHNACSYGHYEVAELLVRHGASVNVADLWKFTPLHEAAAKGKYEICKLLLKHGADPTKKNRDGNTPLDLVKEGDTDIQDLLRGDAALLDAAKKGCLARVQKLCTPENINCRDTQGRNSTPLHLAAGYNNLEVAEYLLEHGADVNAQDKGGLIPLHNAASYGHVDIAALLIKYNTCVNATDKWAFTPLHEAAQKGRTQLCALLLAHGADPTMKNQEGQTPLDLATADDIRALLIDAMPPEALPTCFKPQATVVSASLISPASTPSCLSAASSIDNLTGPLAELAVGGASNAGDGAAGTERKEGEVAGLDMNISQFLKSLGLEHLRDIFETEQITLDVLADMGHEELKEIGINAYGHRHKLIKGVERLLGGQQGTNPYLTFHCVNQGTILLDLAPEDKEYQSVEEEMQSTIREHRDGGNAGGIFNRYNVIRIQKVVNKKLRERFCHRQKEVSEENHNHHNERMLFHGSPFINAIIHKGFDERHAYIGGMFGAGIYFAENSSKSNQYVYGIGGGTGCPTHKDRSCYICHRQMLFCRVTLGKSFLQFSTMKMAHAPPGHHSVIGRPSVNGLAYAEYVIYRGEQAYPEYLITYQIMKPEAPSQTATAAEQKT

Homo sapiens [5] = species: Homo sapiens; test: Selectivity ratio of IC50 for PARP1 (unknown origin) to IC50 for human tankyrase2
Homo sapiens [6] = species: Homo sapiens; test: Selectivity ratio of IC50 for PARP1 (unknown origin) to IC50 for human tankyrase1
[7] = target: T3, Poly [ADP-ribose] polymerase tankyrase-2 (Homo sapiens) (UniProt Q9H2K2); test: Inhibition of human tankyrase2 at 10 nM after 2 hrs by spectrophotometry
T3 sequence (whole entry): T1 sequence (Q9H2K2 whole entry)

Chain of Poly [ADP-ribose] polymerase 1 (P09874 whole entry): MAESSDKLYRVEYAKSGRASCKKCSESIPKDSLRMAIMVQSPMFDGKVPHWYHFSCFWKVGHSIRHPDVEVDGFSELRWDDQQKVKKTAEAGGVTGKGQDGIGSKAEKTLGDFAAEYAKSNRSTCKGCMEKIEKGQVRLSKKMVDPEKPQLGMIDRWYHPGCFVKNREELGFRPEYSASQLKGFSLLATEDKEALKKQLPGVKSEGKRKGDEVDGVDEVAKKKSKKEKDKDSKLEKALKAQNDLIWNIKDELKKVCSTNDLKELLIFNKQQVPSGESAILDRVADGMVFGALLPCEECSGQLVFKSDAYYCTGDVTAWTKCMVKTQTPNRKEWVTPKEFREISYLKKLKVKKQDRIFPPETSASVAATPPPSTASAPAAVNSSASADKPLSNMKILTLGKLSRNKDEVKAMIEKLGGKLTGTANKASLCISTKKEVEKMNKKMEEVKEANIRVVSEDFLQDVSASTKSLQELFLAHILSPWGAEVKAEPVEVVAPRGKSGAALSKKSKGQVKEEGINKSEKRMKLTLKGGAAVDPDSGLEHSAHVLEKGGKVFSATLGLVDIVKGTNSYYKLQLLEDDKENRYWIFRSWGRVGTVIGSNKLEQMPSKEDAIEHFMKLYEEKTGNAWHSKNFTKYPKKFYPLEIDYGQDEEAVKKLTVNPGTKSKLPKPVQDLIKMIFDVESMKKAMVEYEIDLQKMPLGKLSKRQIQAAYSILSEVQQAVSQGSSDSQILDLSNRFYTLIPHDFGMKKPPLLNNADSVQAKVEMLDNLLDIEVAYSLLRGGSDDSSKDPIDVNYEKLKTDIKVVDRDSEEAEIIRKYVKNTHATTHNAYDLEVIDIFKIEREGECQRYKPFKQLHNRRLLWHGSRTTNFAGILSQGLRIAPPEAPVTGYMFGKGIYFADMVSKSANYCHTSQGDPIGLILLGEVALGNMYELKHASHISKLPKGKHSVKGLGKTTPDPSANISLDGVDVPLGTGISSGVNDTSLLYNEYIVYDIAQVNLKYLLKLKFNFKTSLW

| SMILES | IC50 [1] [µM] | IC50 [2] [µM] | IC50 [3] [µM] | IC50 [4] [µM] | Ratio IC50 (Homo sapiens [5]) | Ratio IC50 (Homo sapiens [6]) | inhibition [7] [%] |
| --- | --- | --- | --- | --- | --- | --- | --- |
| Cc1cccc2c(=O)[nH]c(-c3ccc(F)cc3)nc12 | > 10 | > 5 | 0.04 | 0.044 | – | – | – |
| Cc1cccc2c(=O)[nH]c(-c3ccc(O)cc3)nc12 | > 10 | 1.2 | 0.003 | 0.052 | – | – | – |
| Cc1cccc2c(O)nc(-c3ccc(C(F)(F)F)cc3)nc12 | > 10 | > 5 | 0.01 | 0.048 | > 500 | > 100 | – |
| COc1cccc2c(=O)[nH]c(-c3ccc(Cl)cc3)nc12 | – | – | – | – | – | – | 25 |
| COc1ccc(-c2nc3c(C)cccc3c(=O)[nH]2)cc1 | > 10 | 0.891 | 0.012 | 0.037 | – | – | – |
| Cc1cccc2c(O)nc(-c3ccc([N+](=O)[O-])cc3)nc12 | > 10 | – | 0.03 | 0.032 | – | – | – |
| Oc1nc(-c2ccc(C(F)(F)F)cc2)nc2c1CSCC2 | > 10 | – | – | – | – | – | – |

Continued, values first:

| IC50 [1] [µM] | IC50 [2] [µM] | IC50 [3] [µM] | IC50 [4] [µM] | Ratio IC50 (Homo sapiens [5]) | Ratio IC50 (Homo sapiens [6]) | inhibition [7] [%] | SMILES |
| --- | --- | --- | --- | --- | --- | --- | --- |
| > 10 | > 5 | 0.0055 | 0.032 | > 830 | > 150 | – | Cc1cccc2c(=O)[nH]c(-c3ccc(Br)cc3)nc12 |
| > 10 | > 5 | 0.044 | 0.073 | > 110 | > 70 | – | Cc1cccc2c(=O)[nH]c(-c3ccc(CNC(=O)OCc4ccccc4)cc3)nc12 |
| > 10 | 0.685 | 0.0067 | 0.035 | – | – | – | Cc1ccc(-c2nc3c(C)cccc3c(=O)[nH]2)cc1 |
| – | – | – | – | – | – | 32 | O=c1[nH]c(-c2ccc(Cl)cc2)nc2c(O)cccc12 |
| > 10 | 0.795 | 0.041 | 0.042 | – | – | – | Cc1cccc2c(=O)[nH]c(-c3ccccc3)nc12 |
| – | – | – | – | 240 | 23 | – | Cc1cccc2c(O)nc(-c3ccc(O)cc3)nc12 |
| – | – | – | – | – | – | 2 | O=c1[nH]c(-c2ccc([N+](=O)[O-])cc2)nc2ccccc12 |
| > 10 | > 5 | 0.033 | 0.036 | – | – | 49 | Cc1cccc2c(=O)[nH]c(-c3ccc(Cl)cc3)nc12 |
| > 10 | 0.504 | 0.0033 | 0.035 | 170 | 14 | – | Cc1cccc2c(O)nc(-c3ccc(N)cc3)nc12 |
